Values quoted from earlier work, collected in patent publication US20180148781A1, “Antioxidant Compounds For Cleave Formulations That Support Long Reads In Sequencing-By-Synthesis” (QIAGEN Waltham, Inc., priority 2016, published 2018).

Conditions: pH 7.4

fraction present in mono-anionic form as ascorbate: 99.95%
SMILES: O=C1O[C@H]([C@@H](O)CO)C(O)=C1O [Ascorbic Acid]
